Measurements as given in patent US10774049B2, “PU.1 inhibitors” (Albert Einstein College of Medicine, priority 2016, dated 2020).
Counter-ions that a name gives are not always drawn.

How the values were obtained:
primary human AML cells = assay: Primary human AML mononuclear cells in semi-solid media (viable cells, colonies, apoptosis); format: cell-based; settings: for mean decrease in number of viable cells / mean decrease of clonogenic capacity: in comparison to vehicle; for average increase of apoptotic cell fraction: vs vehicle
Procedure: FIG. 4A-4G. PU.1 inhibition decreases cell growth and increases apoptosis of primary human AML cells. (A-C) Transduced GFP+ human primary mononuclear AML cells were plated in semi-solid media (150 000 cells per ml of methyl); colony number, number of viable cells and apoptotic cells were assessed after 14 days of culture. (A, B) Clonogenic capacities and number of viable cells after transduction with shPU.1_1 and shPU.1_2 (n=7). (C) Apoptotic cells (Annexin-V+Dapi−) fraction after transduction with shPU.1_1 and shPU.1_2 (n=7). (D-F) Human primary mononuclear AML cells were plated in semi-solid media (150 000 cells per ml of methyl) containing the PU.1 inhibitors DB1976, DB2115 and DB2313; colony number, number of viable cells and apoptotic cells were assessed after 14 days of culture. (D-E) Clonogenic capacities (n=9) and number of viable cells (n=8) after treatment. (F) Apoptotic cells (Annexin-V+Dapi−) fraction after treatment (n=8). […] (A-G) Data represent means±SD, each AML sample is represented by an individual dot. Fold change compared to shCtrl or Vehicle is shown.
To determine whether PU.1 inhibition has an effect on primary cells from AML patients, we seeded mononuclear cells from AML patients in semi-solid media for 2 weeks and assessed the number of colonies, the number of viable cells and the proportion of apoptotic cells. […] At the same time, the proportion of apoptotic cells increased on average of 2-fold upon knockdown of PU.1 in primary human AML cells with the more efficient shRNA (shPU.1_2) (FIG. 1F).
We also explored the effect of the small molecule PU.1 inhibitors on primary human AML cells, and treated 11 samples from AML patients with PU.1 inhibitors. PU.1 inhibitors led to significant decreases in the number of viable cells (mean decrease: 81% for DB1976, 68% for DB2115, 72% for DB2313) (FIG. 3E), and clonogenic capacity (mean decrease of 36% for DB1976, 45% for DB2115, 60% for DB23313), in comparison to vehicle (FIG. 3F). The apoptotic cell fraction increased on average by 1.5-fold with DB1976, 2.2-fold with DB2115 and 2.5-fold with DB2313 (FIG. 3G).

PU.1 transactivation = assay: GFP reporter expression in bone marrow mononuclear cells of PU.1-GFP knock-in reporter mouse; format: cell-based; settings: PU.1-GFP knock-in bone marrow mononuclear cells
Description: To assess on-target activity of our inhibitors in AML cells, we measured transcript levels of well-known PU.1 targets in PU.1 URE^−/− AML cells. It has been shown that PU.1 positively regulates Csf1r, Junb, and autoregulates itself, whereas it represses E2f1. In line with this, we found a decrease in Csf1r, Junb, and PU.1 transcript expression and an increase in E2f1 expression upon treatment with DB2115, or DB2313 (FIG. 4A, left panel). As Csf1r is one of the most sensitive PU.1 targets in myeloid cells, we assessed its expression at different time points (1 h, 4 h, 8 h and 24 h) after drug treatment. […] Furthermore, treatment of bone marrow mononuclear cells isolated from a PU.1-GFP knock-in reporter mouse model led to a decrease in GFP reporter expression after treatment with DB1976, DB2115, or DB2313, further confirming a direct effect of the compounds on PU.1 transactivation (FIG. 4B), and consistent with PU.1 positive autoregulation.

λB promoter DNA sequence = assay: SPR binding of compounds to immobilized λB promoter DNA; design: species or system murine; settings: biosensor-SPR, 1:1 complex
Procedure: FIG. 8A-8C depicts (A) DB2313 synthesis (B-C) Representative SPR sensorgrams for compounds binding to the immobilized λB promoter DNA sequence: (B) DB2313 (KD=7±2 nM) and (C) DB1976 (KD=5±2 nM) as previously described (Munde et al., 2014). The solid black lines are best fit values for global kinetic fitting of the results with a single binding site function. Similar experiments with DB2115 gave a KD=1±2 nM. The plots are for the SPR signal (RU) versus time from injection of the compound over the sensorchip. From 0 to 180 seconds, compound is being injected (association) and after that only buffer flows over the chip. (B) From top to bottom: 10, 30, 40 nM. (C) From top to bottom: 5, 10, 15 nM.
To test whether these heterocyclic diamidines targeted cognate DNA binding sites for PU.1, we assessed binding to the λB motif by biosensor-surface plasmon resonance (SPR). Duplex DNA harboring the λB motif was immobilized on a streptavidin functionalized sensor chip with a dextran surface as described. The DNA was 5′-end labeled with biotin and captured on the sensor chip. Based on the known strong AT selectivity of these heterocyclic diamidines, they are expected to bind to the AT rich λB promoter sequence at the 5′ side of the 5′-GGAA-3′ PU.1 conserved recognition sequence. Sensorgrams obtained from the compounds-DNA association and disassociation reactions were used to determine equilibrium dissociation constants. The KD values indicate strong binding by all three compounds to form a 1:1 complex, and a binding K^D of 1±2 nM for DB2115 and 4-7 nM for DB1976 and DB2313 with the λB promoter.

N=C(N)c1ccc2nc(-c3ccc(-c4nc5ccc(C(=N)N)cc5[nH]4)[se]3)[nH]c2c1 [DB1976]
mean decrease in number of viable cells (primary human AML cells): 81%
mean decrease of clonogenic capacity (primary human AML cells): 36%
average increase of apoptotic cell fraction (primary human AML cells): 1.5 fold
GFP reporter expression (PU.1 transactivation): decrease
Kd (λB promoter DNA sequence): 5 ± 2 nM

N=C(N)c1ccc2nc(-c3ccc(OCCCCOc4ccc(-c5nc6ccc(C(=N)N)cc6[nH]5)cc4)cc3)[nH]c2c1 [DB2115]
mean decrease in number of viable cells (primary human AML cells): 68%
mean decrease of clonogenic capacity (primary human AML cells): 45%
average increase of apoptotic cell fraction (primary human AML cells): 2.2 fold
GFP reporter expression (PU.1 transactivation): decrease
Kd (λB promoter DNA sequence): 1 ± 2 nM

CC(C)NC(=N)c1ccc2nc(-c3ccc(OCc4cccc(COc5ccc(-c6nc7ccc(C(=N)NC(C)C)cc7[nH]6)cc5)c4F)cc3)[nH]c2c1 [DB2313, 3-Bis{4[4(5)-N-isopropylamidinobenzimidazolyl]phenoxymethyl]}-2-fluorobenzene tetrahydrochloride]
mean decrease in number of viable cells (primary human AML cells): 72%
mean decrease of clonogenic capacity (primary human AML cells): 60%
average increase of apoptotic cell fraction (primary human AML cells): 2.5 fold
GFP reporter expression (PU.1 transactivation): decrease
Kd (λB promoter DNA sequence): 7 ± 2 nM
